Values of other authors, collected in US20190263927A1, “COMBINATION OF A PD-1 ANTAGONIST AND ERIBULIN FOR TREATING UROTHELIAL CANCER” (Merck Sharp & Dohme Corp., priority 2016, published 2019).

Tested on: patients with metastatic UC (mUC)
Conditions: eribulin monotherapy; patients with metastatic/advanced UC; NCI Protocol No. 7435

## C=C1C[C@@H]2CC[C@@]34C[C@H]5O[C@H]6[C@@H](O3)[C@H]3O[C@H](CC[C@@H]3O[C@H]6[C@H]5O4)CC(=O)C[C@@H]3[C@@H](OC)[C@@H](C[C@H](O)CN)O[C@H]3C[C@H]3O[C@@H](CC[C@@H]1O2)C[C@@H](C)C3=C [Eribulin]
  clinical benefit for treatment of patients with mUC: provide clinical benefit
